Patent publication US20100298141A1, “SUBSTITUTED PYRIDINE N-OXIDE HERBICIDES” (E. I. DU PONT DE NEMOURS AND COMPANY, priority 2007, published 2010)

Experiments:
morningglory = assay: Test C pre-/postemergence test; type: in vivo, Ipomoea coccinea
Outline: (§1)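 Compounds in a non-phytotoxic solvent with surfactant applied preemergence to seeded pots and, at the same time, postemergence to plants 2–18 cm tall (1- to 4-leaf stage). Paddy tests: pots flooded to 3 cm, compound applied into the water, depth held throughout.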

bermudagrass = assay: Test C pre-/postemergence test; type: in vivo, Cynodon dactylon
Outline: as §1

velvetleaf = assay: Test A pre-/postemergence greenhouse test; type: in vivo, Abutilon theophrasti; details: for Velvetleaf plant response rating: 0 to 100 scale; for Plant response rating, Velvetleaf: 0 to 100 scale where 0 is no effect and 100 is complete control
Outline: (§2)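 Each test compound, dissolved in a non-phytotoxic solvent mixture with surfactant, was sprayed directly onto seeded soil (loam/sand blend) and, at the same moment, onto seedlings carrying one to two leaves. Around ten greenhouse days later, plants were rated visually for injury relative to untreated controls.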

giant foxtail [1] = assay: Test A pre-/postemergence greenhouse test; type: in vivo, Setaria faberi; details: for Foxtail, Giant plant response rating: 0 to 100 scale; for Plant response rating, Foxtail, Giant: 0 to 100 scale where 0 is no effect and 100 is complete control
Outline: as §2

barnyardgrass = assay: Test C flooded paddy test; type: in vivo, Echinochloa crus-galli; details: Flood
Outline: (§3)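 Ratings were visual and made relative to untreated controls after 13 to 15 greenhouse days.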

giant foxtail [2] = assay: Test C pre-/postemergence test; type: in vivo, Setaria faberii
Outline: as §1

lambsquarters = assay: Test C pre-/postemergence test; type: in vivo, Chenopodium album
Outline: as §1

downy brome = assay: Test C pre-/postemergence test; type: in vivo, Bromus tectorum
Outline: as §1

catchweed bedstraw = assay: Test C pre-/postemergence test; type: in vivo, Galium aparine
Outline: as §1

soybean = assay: Test C pre-/postemergence test; type: in vivo, Glycine max
Outline: as §1

Surinam grass = assay: Test C pre-/postemergence test; type: in vivo, Brachiaria decumbens
Outline: as §1

crabgrass = assay: Test C pre-/postemergence test; type: in vivo, Digitaria sanguinalis
Outline: as §1

rice = assay: Test C flooded paddy test; type: in vivo, Oryza sativa; details: Flood
Outline: as §3

pigweed = assay: Test C pre-/postemergence test; type: in vivo, Amaranthus retroflexus
Outline: as §1

johnsongrass = assay: Test C pre-/postemergence test; type: in vivo, Sorghum halepense
Outline: as §1

corn = assay: Test A pre-/postemergence greenhouse test; type: in vivo, Zea mays; details: for Corn plant response rating: 0 to 100 scale; for Plant response rating, Corn: 0 to 100 scale where 0 is no effect and 100 is complete control
Outline: as §2

wheat = assay: Test A pre-/postemergence greenhouse test; type: in vivo, Triticum aestivum; details: for Wheat plant response rating: 0 to 100 scale; for Plant response rating, Wheat: 0 to 100 scale where 0 is no effect and 100 is complete control
Outline: as §2

[3] = 62 g ai/ha, Preemergence, scale 0 to 100
[4] = 125 g ai/ha, preemergence, scale 0 (no effect) to 100 (complete control)
[5] = Preemergence, 31 g ai/ha, scale 0 to 100 (0 no effect, 100 complete control)
[6] = preemergence, 250 g ai/ha, scale 0 (no effect) to 100 (complete control)
[7] = Postemergence, 125 g ai/ha, 0 is no effect, 100 is complete control
[8] = Postemergence, 500 g ai/ha, 0 is no effect, 100 is complete control
[9] = Preemergence, 125 g ai/ha, 0 no effect, 100 complete control
[10] = 31 g ai/ha, scale 0 to 100 (0 no effect, 100 complete control)
[11] = 62 g ai/ha, scale 0 to 100, 0 no effect, 100 complete control, 13 to 15 days
[12] = 125 g ai/ha, scale 0 to 100, 0 no effect, 100 complete control, 13 to 15 days
[13] = 250 g ai/ha, scale 0 to 100, 0 no effect, 100 complete control, 13 to 15 days
[14] = 31 g ai/ha, Preemergence, scale 0 to 100
[15] = 62 g ai/ha, preemergence, scale 0 (no effect) to 100 (complete control)
[16] = preemergence, 125 g ai/ha, scale 0 (no effect) to 100 (complete control)
[17] = 250 g ai/ha, scale 0 to 100 (0 no effect, 100 complete control)

SMILES: Cn1nc(C(F)(F)F)c(C(Cl)S(=O)(=O)c2cccc[n+]2[O-])c1OCC(F)(F)F (racemic) [Compound 36]
- Morningglory plant response rating (morningglory; [3]): 10
- Morningglory plant response rating (morningglory; [4]): 60
- Plant response rating, Morningglory (morningglory; [5]): 0
- Morningglory plant response rating (morningglory; [6]): 75
- Bermudagrass plant response rating (bermudagrass; 62 g ai/ha, Preemergence, scale 0 to 100 (0 no effect, 100 complete control)): 100
- Bermudagrass plant response rating (bermudagrass; [4]): 100
- Plant response rating, Bermudagrass (bermudagrass; [5]): 85
- Bermudagrass plant response rating (bermudagrass; [6]): 100
- Velvetleaf plant response rating (velvetleaf; [7]): 0
- Velvetleaf plant response rating (velvetleaf; [8]): 40
- Velvetleaf plant response rating (velvetleaf; [9]): 40
- Plant response rating, Velvetleaf (velvetleaf; Preemergence, 500 g ai/ha): 70
- Foxtail, Giant plant response rating (giant foxtail [1]; [7]): 40
- Foxtail, Giant plant response rating (giant foxtail [1]; [8]): 70
- Foxtail, Giant plant response rating (giant foxtail [1]; [9]): 100
- Plant response rating, Foxtail, Giant (giant foxtail [1]; Preemergence, 500 g ai/ha): 100
- Plant response rating, Barnyardgrass (barnyardgrass; [10]): 0
- Plant response rating, Barnyardgrass (barnyardgrass; [11]): 10
- Plant response rating, Barnyardgrass (barnyardgrass; [12]): 25
- Plant response rating, Barnyardgrass (barnyardgrass; [13]): 90
- Foxtail, Giant plant response rating (giant foxtail [2]; [3]): 50
- Foxtail, Giant plant response rating (giant foxtail [2]; [4]): 100
- Plant response rating, Foxtail, Giant (giant foxtail [2]; [5]): 30
- Foxtail, Giant plant response rating (giant foxtail [2]; [6]): 100
- Lambsquarters plant response rating (lambsquarters; [3]): 60
- Lambsquarters plant response rating (lambsquarters; [4]): 80
- Plant response rating, Lambsquarters (lambsquarters; [5]): 0
- Lambsquarters plant response rating (lambsquarters; [6]): 95
- Bromegrass, Downy plant response rating (downy brome; [3]): 0
- Bromegrass, Downy plant response rating (downy brome; [4]): 30
- Plant response rating, Bromegrass, Downy (downy brome; [5]): 0
- Bromegrass, Downy plant response rating (downy brome; [6]): 50
- Galium plant response rating (catchweed bedstraw; [3]): 0
- Galium plant response rating (catchweed bedstraw; [4]): 100
- Plant response rating, Galium (catchweed bedstraw; [5]): 0
- Galium plant response rating (catchweed bedstraw; [6]): 100
- Soybean plant response rating (soybean; [3]): 5
- Soybean plant response rating (soybean; [4]): 15
- Plant response rating, Soybean (soybean; [5]): 0
- Soybean plant response rating (soybean; [6]): 20
- Surinam Grass plant response rating (Surinam grass; [3]): 80
- Surinam Grass plant response rating (Surinam grass; [4]): 100
- Plant response rating, Surinam Grass (Surinam grass; [5]): 50
- Surinam Grass plant response rating (Surinam grass; [6]): 100
- Crabgrass, Large plant response rating (crabgrass; [3]): 80
- Crabgrass, Large plant response rating (crabgrass; [4]): 100
- Plant response rating, Crabgrass, Large (crabgrass; [5]): 65
- Crabgrass, Large plant response rating (crabgrass; [6]): 100
- Plant response rating, Rice (rice; [10]): 0
- Plant response rating, Rice (rice; [11]): 25
- Plant response rating, Rice (rice; [12]): 60
- Plant response rating, Rice (rice; [13]): 75
- Pigweed plant response rating (pigweed; [3]): 90
- Pigweed plant response rating (pigweed; [4]): 100
- Plant response rating, Pigweed (pigweed; [5]): 80
- Pigweed plant response rating (pigweed; [6]): 100
- Johnsongrass plant response rating (johnsongrass; [3]): 80
- Johnsongrass plant response rating (johnsongrass; [4]): 90
- Plant response rating, Johnsongrass (johnsongrass; [5]): 60
- Johnsongrass plant response rating (johnsongrass; [6]): 90
- Corn plant response rating (corn; [7]): 0
- Corn plant response rating (corn; [8]): 0
- Corn plant response rating (corn; [9]): 0
- Plant response rating, Corn (corn; Preemergence, 500 g ai/ha): 0
- Wheat plant response rating (wheat; [7]): 0
- Wheat plant response rating (wheat; [8]): 50
- Wheat plant response rating (wheat; [9]): 20
- Plant response rating, Wheat (wheat; Preemergence, 500 g ai/ha): 60

SMILES: CC(c1c(C(F)(F)F)nn(C)c1Cl)S(=O)(=O)c1cccc[n+]1[O-] (stereo not drawn) [Compound 10]
- Morningglory plant response rating (morningglory; [14]): 85
- Morningglory plant response rating (morningglory; [15]): 100
- Plant response rating (0 to 100), Morningglory (morningglory; Preemergence, 250 g ai/ha): 100
- Morningglory plant response rating (morningglory; [16]): 100
- Bermudagrass plant response rating (bermudagrass; [14]): 95
- Bermudagrass plant response rating (bermudagrass; [15]): 100
- Plant response rating (0 to 100), Bermudagrass (bermudagrass; Preemergence, 250 g ai/ha): 100
- Bermudagrass plant response rating (bermudagrass; [16]): 100
- Velvetleaf plant response rating (velvetleaf; [7]): 0
- Velvetleaf plant response rating (velvetleaf; [8]): 30
- Velvetleaf plant response rating (velvetleaf; [9]): 60
- Plant response rating, Velvetleaf (velvetleaf; Preemergence, 500 g ai/ha): 60
- Foxtail, Giant plant response rating (giant foxtail [1]; [7]): 80
- Foxtail, Giant plant response rating (giant foxtail [1]; [8]): 90
- Foxtail, Giant plant response rating (giant foxtail [1]; [9]): 100
- Plant response rating, Foxtail, Giant (giant foxtail [1]; Preemergence, 500 g ai/ha): 100
- Plant response rating, Barnyardgrass (barnyardgrass; [10]): 0
- Plant response rating, Barnyardgrass (barnyardgrass; [11]): 30
- Plant response rating, Barnyardgrass (barnyardgrass; [12]): 75
- Plant response rating, Barnyardgrass (barnyardgrass; [17]): 85
- Foxtail, Giant plant response rating (giant foxtail [2]; [14]): 85
- Foxtail, Giant plant response rating (giant foxtail [2]; [15]): 100
- Plant response rating (0 to 100), Foxtail, Giant (giant foxtail [2]; Preemergence, 250 g ai/ha): 100
- Foxtail, Giant plant response rating (giant foxtail [2]; [16]): 100
- Lambsquarters plant response rating (lambsquarters; [14]): 0
- Lambsquarters plant response rating (lambsquarters; [15]): 98
- Plant response rating (0 to 100), Lambsquarters (lambsquarters; Preemergence, 250 g ai/ha): 100
- Lambsquarters plant response rating (lambsquarters; [16]): 100
- Bromegrass, Downy plant response rating (downy brome; [14]): 0
- Bromegrass, Downy plant response rating (downy brome; [15]): 0
- Plant response rating (0 to 100), Bromegrass, Downy (downy brome; Preemergence, 250 g ai/ha): 70
- Bromegrass, Downy plant response rating (downy brome; [16]): 10
- Galium plant response rating (catchweed bedstraw; [14]): 0
- Galium plant response rating (catchweed bedstraw; [15]): 50
- Plant response rating (0 to 100), Galium (catchweed bedstraw; Preemergence, 250 g ai/ha): 100
- Galium plant response rating (catchweed bedstraw; [16]): 100
- Soybean plant response rating (soybean; [14]): 0
- Soybean plant response rating (soybean; [15]): 0
- Plant response rating (0 to 100), Soybean (soybean; Preemergence, 250 g ai/ha): 10
- Soybean plant response rating (soybean; [16]): 5
- Surinam Grass plant response rating (Surinam grass; [15]): 98
- Plant response rating (0 to 100), Surinam Grass (Surinam grass; Preemergence, 250 g ai/ha): 100
- Surinam Grass plant response rating (Surinam grass; [16]): 100
- Crabgrass, Large plant response rating (crabgrass; [14]): 100
- Crabgrass, Large plant response rating (crabgrass; [15]): 100
- Plant response rating (0 to 100), Crabgrass, Large (crabgrass; Preemergence, 250 g ai/ha): 100
- Crabgrass, Large plant response rating (crabgrass; [16]): 100
- Plant response rating, Rice (rice; [10]): 0
- Plant response rating, Rice (rice; [11]): 25
- Plant response rating, Rice (rice; [12]): 70
- Plant response rating, Rice (rice; [17]): 80
- Pigweed plant response rating (pigweed; [14]): 70
- Pigweed plant response rating (pigweed; [15]): 100
- Plant response rating (0 to 100), Pigweed (pigweed; Preemergence, 250 g ai/ha): 100
- Pigweed plant response rating (pigweed; [16]): 100
- Johnsongrass plant response rating (johnsongrass; [14]): 70
- Johnsongrass plant response rating (johnsongrass; [15]): 100
- Plant response rating (0 to 100), Johnsongrass (johnsongrass; Preemergence, 250 g ai/ha): 100
- Johnsongrass plant response rating (johnsongrass; [16]): 100
- Corn plant response rating (corn; [7]): 40
- Corn plant response rating (corn; [8]): 60
- Corn plant response rating (corn; [9]): 0
- Plant response rating, Corn (corn; Preemergence, 500 g ai/ha): 50
- Wheat plant response rating (wheat; [7]): 50
- Wheat plant response rating (wheat; [8]): 70
- Wheat plant response rating (wheat; [9]): 60
- Plant response rating, Wheat (wheat; Preemergence, 500 g ai/ha): 80
